Here are results for two compounds from ChEMBL document CHEMBL2074393, “Impact of Mrp2 on the biliary excretion and intestinal absorption of furosemide, probenecid, and methotrexate using Eisai hyperbilirubinemic rats” (Pharm Res, 2003).

Data set [1] deals with T1, ATP-binding cassette sub-family C member 2 (Rattus norvegicus, UniProt Q63120). Nature of the data set: TP_TRANSPORTER: In vivo biliary excretion in vivo, biliary excretion of SDR and EHBR rat. It is filed as functional, organism-based, Bile.
T1 sequence (Q63120 whole entry): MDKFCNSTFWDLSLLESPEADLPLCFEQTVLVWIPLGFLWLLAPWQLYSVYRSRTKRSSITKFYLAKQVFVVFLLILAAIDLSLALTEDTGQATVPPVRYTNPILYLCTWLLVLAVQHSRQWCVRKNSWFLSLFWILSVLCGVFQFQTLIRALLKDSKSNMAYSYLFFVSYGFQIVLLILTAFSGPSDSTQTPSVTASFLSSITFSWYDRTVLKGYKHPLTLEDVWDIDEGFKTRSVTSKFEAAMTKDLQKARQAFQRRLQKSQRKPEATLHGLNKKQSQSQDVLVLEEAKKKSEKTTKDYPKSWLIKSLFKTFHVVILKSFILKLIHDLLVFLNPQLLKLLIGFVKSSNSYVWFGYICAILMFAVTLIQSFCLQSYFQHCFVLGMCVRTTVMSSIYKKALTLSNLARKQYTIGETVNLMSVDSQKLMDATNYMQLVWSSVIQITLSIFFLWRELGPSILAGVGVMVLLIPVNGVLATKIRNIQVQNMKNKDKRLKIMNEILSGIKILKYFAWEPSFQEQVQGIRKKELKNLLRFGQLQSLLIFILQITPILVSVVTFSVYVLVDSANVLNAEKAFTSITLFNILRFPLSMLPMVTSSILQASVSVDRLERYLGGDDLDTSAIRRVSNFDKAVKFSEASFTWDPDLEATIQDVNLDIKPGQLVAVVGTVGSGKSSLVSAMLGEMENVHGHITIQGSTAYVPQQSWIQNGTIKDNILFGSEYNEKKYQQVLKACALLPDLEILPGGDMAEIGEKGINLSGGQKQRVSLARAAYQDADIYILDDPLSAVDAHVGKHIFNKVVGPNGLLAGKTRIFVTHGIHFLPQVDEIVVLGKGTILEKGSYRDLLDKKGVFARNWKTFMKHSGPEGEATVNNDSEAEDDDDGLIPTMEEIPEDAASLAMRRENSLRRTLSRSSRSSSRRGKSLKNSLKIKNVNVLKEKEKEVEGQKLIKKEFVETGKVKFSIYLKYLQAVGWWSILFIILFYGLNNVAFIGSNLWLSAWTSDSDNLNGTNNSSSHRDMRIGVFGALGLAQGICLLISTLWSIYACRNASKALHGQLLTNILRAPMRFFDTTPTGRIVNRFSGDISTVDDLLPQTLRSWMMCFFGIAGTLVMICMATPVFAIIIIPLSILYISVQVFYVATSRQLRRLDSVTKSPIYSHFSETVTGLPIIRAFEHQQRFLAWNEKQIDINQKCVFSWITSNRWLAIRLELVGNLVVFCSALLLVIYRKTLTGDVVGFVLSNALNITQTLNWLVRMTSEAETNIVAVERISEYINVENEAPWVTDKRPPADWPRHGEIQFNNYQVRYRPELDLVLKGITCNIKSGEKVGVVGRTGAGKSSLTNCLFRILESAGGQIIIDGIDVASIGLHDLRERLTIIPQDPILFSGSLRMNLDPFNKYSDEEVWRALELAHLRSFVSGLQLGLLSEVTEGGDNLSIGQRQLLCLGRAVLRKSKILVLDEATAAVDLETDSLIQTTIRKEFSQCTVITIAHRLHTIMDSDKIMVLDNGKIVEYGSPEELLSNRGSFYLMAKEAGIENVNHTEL
Data set [2] addresses T1, ATP-binding cassette sub-family C member 2. Nature of the data set: TP_TRANSPORTER: In vivo biliary excretion of SDR rat. The class given is functional, organism-based, Sprague-Dawley, Bile.

Take `CN(Cc1cnc2nc(N)nc(N)c2n1)c1ccc(C(=O)N[C@@H](CCC(=O)O)C(=O)O)cc1` [METHOTREXATE]: the Activity entry in data set [1] and in data set [2] was “substrate []” in each case.

As to `CCCN(CCC)S(=O)(=O)c1ccc(C(=O)O)cc1` [PROBENECID], the Activity result in data set [1] and in data set [2] was “substrate []” each time.
